Assay results taken from US7115600B2, “Histamine-3 receptor modulators” (Pfizer Inc., priority 2004, dated 2006).

The compounds below were run against T1, rat histamine H3 receptors (Rattus norvegicus, UniProt Q9QYN8) (assay: Rat Histamine H3 Receptor Binding). Details: frozen rat frontal brain membranes; radioligand 1 nM 3H-N-methyl-histamine; 1 hour incubation; read-out: rH3 Ki.
T1 construct: Frozen rat frontal brain or frozen human post-mortem frontal brain is homogenized; from tissue; host or cells: rat frontal brain membranes
T1 sequence (Q9QYN8 whole entry): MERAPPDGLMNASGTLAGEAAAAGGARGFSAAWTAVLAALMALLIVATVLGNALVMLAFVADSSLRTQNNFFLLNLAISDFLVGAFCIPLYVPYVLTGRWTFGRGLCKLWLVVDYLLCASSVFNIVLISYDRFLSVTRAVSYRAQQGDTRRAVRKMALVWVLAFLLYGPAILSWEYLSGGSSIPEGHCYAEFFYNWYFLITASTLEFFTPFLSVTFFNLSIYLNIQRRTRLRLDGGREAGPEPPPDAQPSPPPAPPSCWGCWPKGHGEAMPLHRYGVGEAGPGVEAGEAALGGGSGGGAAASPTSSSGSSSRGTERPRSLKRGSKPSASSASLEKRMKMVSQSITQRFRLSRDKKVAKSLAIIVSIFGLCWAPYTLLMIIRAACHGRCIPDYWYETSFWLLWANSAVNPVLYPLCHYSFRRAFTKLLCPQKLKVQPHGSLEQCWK
Protocol: The in vitro affinity of the compounds in the present invention at the rat or human histamine H3 receptors can be determined according to the following procedure. Frozen rat frontal brain or frozen human post-mortem frontal brain is homogenized in 20 volumes of cold 50 mM Tris HCl containing 2 mM MgCl2 (pH to 7.4 at 4 degrees C.). The homogenate is then centrifuged at 45,000 G for 10 minutes. The supernatant is decanted and the membrane pellet resuspended by Polytron in cold 50 mM Tris HCl containing 2 mM MgCl2 (pH to 7.4 at 4 degrees C.) and centrifuged again. The final pellet is resuspended in 50 mM Tris HCl containing 2 mM MgCl2 (pH to 7.4 at 25 degrees C.) at a concentration of 12 mg/mL. Dilutions of compounds are made in 10% DMSO/50 mM Tris buffer (pH 7.4) (at 10× final concentration, so that the final DMSO concentration is 1%). Incubations are initiated by the addition of membranes (200 microliters) to 96 well V-bottom polypropylene plates containing 25 microliters of drug dilutions and 25 microliters of radioligand (1 nM final concentration 3H—N-methyl-histamine). After a 1 hour incubation, assay samples are rapidly filtered through Whatman GF/B filters and rinsed with ice-cold 50 nM Tris buffer (pH 7.4) using a Skatron cell harvester. Radioactivity is quantified using a BetaPlate scintillation counter. The percent inhibition of specific binding can then be calculated.

| SMILES | Ki |
| --- | --- |
| Cc1cnc(OC[C@H]2C[C@@H](c3ccc(CN4CCCC4)cc3)C2)nc1C1CCCNC1 (relative stereo) [Example 59, cis-5-Methyl-4-piperidin-3-yl-2-[3-(4-pyrrolidin-1-ylmethyl-phenyl)-cyclobutylmethoxy]-pyrimidine] | 26.2 nM |
| FC(F)(F)c1cc(-c2ccccc2)nc(OC[C@H]2C[C@@H](c3ccc(CN4CCCC4)cc3)C2)n1 [Example 76, cis-4-Phenyl-2-{[3-(4-pyrrolidin-1-ylmethyl-phenyl)-cyclobutylmethyl]oxy}-6-trifluoromethyl-pyrimidine] | 1.89 nM |
| c1ccc2c(c1)CN(C[C@H]1C[C@H](c3ccc(CN4CCCC4)cc3)C1)C2 [Example 125, trans-2-[3-(4-Pyrrolidin-1-ylmethyl-phenyl)-cyclobutylmethyl]-2,3-dihydro-1H-isoindole] | 1.77 nM |
| CN(C[C@H]1C[C@H](c2ccc(CN3CCCC3)cc2)C1)C1CCCCC1 [Example 115, trans-Cyclohexyl-methyl-[3-(4-pyrrolidin-1-ylmethyl-phenyl)-cyclobutylmethyl]-amine] | 1.44 nM |
| Cc1cnc(C)c(OCC2CC(c3ccc(CN4CCCC4)cc3)C2)n1 (centres unmarked) [Example 41, 2,5-Dimethyl-3-[3-(4-pyrrolidin-1-ylmethyl-phenyl)-cyclobutylmethoxy]-pyrazine] | 32 nM |
| Cc1cc(C2CCNC2)nc(OC[C@H]2C[C@@H](c3ccc(CN4CCCC4)cc3)C2)n1 (relative stereo) [Example 66, cis-4-Methyl-6-pyrrolidin-3-yl-2-[3-(4-pyrrolidin-1-ylmethyl-phenyl)-cyclobutylmethoxy]-pyrimidine] | 4.75 nM |
| c1cc([C@H]2C[C@H](CN3CCCCC3)C2)ccc1CN1CCCC1 [Example 108, trans-1-[3-(4-Pyrrolidin-1-ylmethyl-phenyl)-cyclobutylmethyl]-piperidine] | 0.58 nM |
| Cc1ccc(S(=O)(=O)OC[C@H]2C[C@H](c3ccc(CN4CCCC4)cc3)C2)cc1 [Example 48, trans-Toluene-4-sulfonic acid 3-(4-pyrrolidin-1-ylmethyl-phenyl)-cyclobutylmethyl ester] | 98 nM |
| Cc1cc(C(=O)Nc2ccccc2)nc(OC[C@H]2C[C@@H](c3ccc(CN4CCCC4)cc3)C2)n1 [Example 83, cis-6-Methyl-2[3-(4-pyrrolidin-1-ylmethyl-phenyl)-cyclobutylmethoxy]-pyrimidine-4-carboxylic acid phenylamide] | 68.8 nM |
| O=C1CN(C[C@H]2C[C@H](c3ccc(CN4CCCC4)cc3)C2)CCN1 [Example 127, trans-4-[3-(4-Pyrrolidin-1-ylmethyl-phenyl)-cyclobutylmethyl]-piperazin-2-one] | 101 nM |
| Cc1cnc(OC[C@H]2C[C@@H](c3ccc(CN4CCCC4)cc3)C2)nc1C1CCNCC1 [Example 81, cis-5-Methyl-4-piperidin-4-yl-2-[3-(4-pyrrolidin-1-ylmethyl-phenyl)-cyclobutylmethoxy]-pyrimidine] | 58 nM |
| CCc1cnc(OC[C@H]2C[C@H](c3ccc(CN4CCCC4)cc3)C2)nc1 [Example 57, trans-5-Ethyl-2-[3-(4-pyrrolidin-1-ylmethyl-phenyl)-cyclobutylmethoxy]-pyrimidine] | 101 nM |
| CCN(CCO)C[C@H]1C[C@H](c2ccc(CN3CCCC3)cc2)C1 [Example 113, trans-2-{Ethyl-[3-(4-pyrrolidin-1-ylmethyl-phenyl)-cyclobutylmethyl]-amino}-ethanol] | 4.46 nM |
| CN(Cc1cccnc1)C[C@H]1C[C@H](c2ccc(CN3CCCC3)cc2)C1 [Example 122, trans-Methyl-pyridin-3-ylmethyl-[3-(4-pyrrolidin-1-ylmethyl-phenyl)-cyclobutylmethyl]-amine] | 2.71 nM |
| CCCN(CC1CC1)C[C@H]1C[C@H](c2ccc(CN3CCCC3)cc2)C1 [Example 124] | 0.49 nM |
| Fc1cnc(OCC2CC(c3ccc(CN4CCCC4)cc3)C2)nc1C1CCNCC1 (centres unmarked) [Example 74, 5-Fluoro-4-piperidin-4-yl-2-[3-(4-pyrrolidin-1-ylmethyl-phenyl)-cyclobutylmethoxy]-pyrimidine] | 12.5 nM |
| Cc1cc(C)nc(OC[C@H]2C[C@H](c3ccc(CN4CCCC4)cc3)C2)n1 [Example 55, trans-4,6-Dimethyl-2-[3-(4-pyrrolidin-1-ylmethyl-phenyl)-cyclobutylmethoxy]-pyrimidine] | 92.6 nM |
| COc1cc(OCC2CC(c3ccc(CN4CCCC4)cc3)C2)nc(OC)n1 (centres unmarked) [Example 46, 2,4-Dimethoxy-6-[3-(4-pyrrolidin-1-ylmethyl-phenyl)-cyclobutylmethoxy]-pyrimidine] | 104 nM |
| CC1CCCCN1C[C@H]1C[C@H](c2ccc(CN3CCCC3)cc2)C1 (relative stereo) [Example 117, trans-2-Methyl-1-[3-(4-pyrrolidin-1-ylmethyl-phenyl)-cyclobutylmethyl]-piperidine] | 0.73 nM |
| N#Cc1ccccc1COCC1CC(c2ccc(CN3CCCC3)cc2)C1 (centres unmarked) [Example 6, 2-[3-(4-Pyrrolidin-1-ylmethyl-phenyl)-cyclobutylmethoxymethyl]-benzonitrile] | 122 nM |
| Cc1ccc(S(=O)(=O)OCC2CC(c3ccc(CN4CCCC4)cc3)C2)cc1 (centres unmarked) [Example 4, Toluene-4-sulfonic acid 3-(4-pyrrolidin-1-ylmethyl-phenyl)-cyclobutylmethyl ester] | 5.65 nM |
| c1ccc(C2CCCN2C[C@H]2C[C@@H](c3ccc(CN4CCCC4)cc3)C2)nc1 (relative stereo) [Example 105, cis-2-{1-[3-(4-Pyrrolidin-1-ylmethyl-phenyl)-cyclobutylmethyl]-pyrrolidin-2-yl}-pyridine] | 5.38 nM |
| Fc1cc(F)cc(COCC2CC(c3ccc(CN4CCCC4)cc3)C2)c1 (centres unmarked) [Example 14, 1-(4-{-3-[(3,5-Difluoro-phenyl)methoxymethyl]-cyclobutyl}-benzyl)-pyrrolidine] | 79.4 nM |
| C[C@@H]1CN(C[C@H]2C[C@H](c3ccc(CN4CCCC4)cc3)C2)C[C@H](C)O1 [Example 126, trans-(2R,6S)-2,6-Dimethyl-4-[3-(4-pyrrolidin-1-ylmethyl-phenyl)-cyclobutylmethyl]-morpholine] | 1.89 nM |
| c1ccc(OCC2CC(c3ccc(CN4CCCC4)cc3)C2)nc1 (centres unmarked) [Example 42, 2-[3-(4-Pyrrolidin-1-ylmethyl-phenyl)-cyclobutylmethoxy]-pyridine] | 131 nM |
| CN(Cc1ccccc1)C[C@H]1C[C@H](c2ccc(CN3CCCC3)cc2)C1 [Example 116, trans-Benzyl-methyl-[3-(4-pyrrolidin-1-ylmethyl-phenyl)-cyclobutylmethyl]-amine] | 2.82 nM |
